Results: US20180133211A1, “METHODS AND MATERIALS FOR PROMOTING BONE FORMATION” (Mayo Foundation for Medical Education and Research, priority 2015, published 2018)

Assays:
[1] = test system: mouse calvarial explants; test: RT-qPCR mRNA expression in calvarial explants; format: cell-based; conditions: calvarial explants from neo-natal and adult mice, 3 μM, 12 days ex vivo
Method: Calvariae from 2 to 3-day-old and from 7-week old C57BL/6 mice were dissected aseptically. The calvarial bone explants were cultured in 48-well plates in α-MEM (Biochrom) containing 10% FCS (Biochrom), 50 μg/mL ascorbic acid (Sigma-Aldrich), 5 mM β-glycerophosphate (Sigma-Aldrich), and 10 μg/mL gentamicin (Sigma-Aldrich). The day after dissection, medium was changed, and a part of the explants was treated with 3 μM L- or DL-SFN for 12 days. Thereafter, one part of the calvariae were fixed for 1 hour in 4% para-formaldehyde (PFA), and mineralization was measured by Alizarin Red S stain (Sigma-Aldrich). For this purpose, Alizarin Red S dye was extracted using 10% cetylpyridinium chloride (CPC) in 10 mM sodiumphosphate (pH=7.0) for 45 minutes at room temperature. Alizarin Red S absorbance was measured at 562 nm in a multi-plate reader (Tecan, Maennedorf, Switzerland) and normalized to total protein amount measured by bicinchoninic acid assay (Thermo Fisher Scientific, Waltham, Mass., USA). […]
Total RNA was extracted using the SV Total RNA Isolation kit (Promega) following the supplier's instructions. cDNA was synthesized from about 0.5 μg RNA using the First Strand cDNA Synthesis kit (Roche) as described by the supplier. […] All RT-qPCR assays were performed in triplicate, and expression was evaluated using the comparative quantification method (Pfaffl, Nucleic Acids Res., 29:e45 (2001)).

[2] = test system: H3K27me3 marks in MC3T3 cells; test: H3K27me3 ChIPSeq in MC3T3 cells; format: cell-based, mouse; conditions: MC3T3, 5 μM GSK126, 24 hours
Method: MC3T3 (10,000 cells/cm^2) were plated in 10 cm plates in maintenance medium. Two days later, 5 μM GSK126 or vehicle were added to the cells in osteogenic medium. Twenty four hours later, cells were harvested by trypsin, and a chromatin immunoprecipitation assay (ChIP) was performed as described elsewhere (Dudakovic et al., J. Biol. Chem., 288:28783-28791 (2013)) using H3K27Me3 (17-622, Lot 2213948, Millipore) and IgG (PP64B, Lot 2056666A, Millipore) antibodies.
Sequencing libraries were prepared and massively parallel high throughput sequencing was performed on Illumina HiSeq2000 system. The alignment, quality assessment, peak calling, and visualization were performed with the HiChIP analysis pipeline (Yan et al., BMC Bioinformatics, 15:280 (2014)). Briefly, the 50 base-pair reads were aligned to the mm10 reference genome using Burrows-Wheeler Aligner. Duplicates were marked with Picard (http://broadinstitute.github.io/picard), and read-pairs without a unique alignment were filtered out using SAMTools (Li et al., Bioinformatics, 25:2078-2079 (2009)). Duplicates were filtered out using a custom script, and pairs with one or both ends mapped uniquely were retained. Enriched regions were identified using SICER (Zang et al., Bioinformatics, 25:1952-1958 (2009)).

[3] = test system: female C57BL/6 mice; test: Bone histomorphometry of distal femur after 5 weeks of GSK126; format: in vivo, mouse; conditions: for N.Ob/B.pm / N.Ob/T.Ar / N.Oc/B.Pm / N.Oc/T.Ar / Ob.S/BS / Oc.S/BS: mean
Method: Female C57BL/6 mice (Harlan Laboratories) were maintained on a 12-hour light/12-hour dark cycle and were permitted ad libitum access to food and water. For efficacy studies, 6-week old mice received daily intraperitoneal (IP) injections of GSK126 at 15 mg/kg, 50 mg/kg, or vehicle (DMSO) in 20% Captisol adjusted to pH 4-4.5 with IN acetic acid (McCabe et al., Nature, 492:108-112 (2012)) for 5 weeks.
The dosage, delivery schedule, and administration route were similar to those described elsewhere (McCabe et al., Nature, 492:108-112 (2012)). Animals were weighed daily. To label mineralizing bone surfaces, mice received subcutaneous injections of calcein (10 mg/kg) 5 days and 24 hours before euthanasia.
The right distal femur was processed for static and dynamic histomorphometry as described elsewhere (McGee-Lawrence et al., Bone, 48:1117-1126 (2011)). Thin (5 μm) sections were stained with Von Kossa/McNeal's tetrachrome to highlight osteoblast surfaces and Goldner's trichrome to examine mineralizing surface and bone surfaces. Osteoclasts were detected using TRAP staining. Unstained sections were used for assessment of dynamic histomorphometry and bone area. Slides were digitized under 40× magnification using Mikroscan D2 digital whole slide scanner and Q-Skan software (Mikroscan Technologies). Beginning 450 μm proximal to the growth plate, mineralizing surface (MS/BS, %/day), mineral apposition rate (MAR, μm/day), bone formation rate (BFR/BV, %/day), osteoblast surface/bone surface (Ob.S/BS, %), osteoblast number/bone perimeter (N.Ob/B.Pm, #/mm), osteoclast surface/bone surface (Oc.S/BS, %), and osteoclast number/bone perimeter (N.Oc/B.Pm, #/mm) were quantified using Image J software as described elsewhere (Schneider et al., Nat. Methods, 9:671-675 (2012) and Egan et al., Histopathology, 61:1168-1173 (2012)).

[4] = distal femoral metaphysis, 15 mg/kg
[5] = distal femoral metaphysis, 50 mg/kg

C[S+]([O-])CCCCN=C=S (racemic) [DL-SFN]
Tnfsf11 expression [1]: decreased

CC[C@H](C)n1cc(C)c2c(C(=O)NCc3c(C)cc(C)[nH]c3=O)cc(-c3ccc(N4CCNCC4)nc3)cc21 [GSK126, N-[(1,2-dihydro-4,6-dimethyl-2-oxo-3-pyridinyl)methyl]-3-methyl-1-[(1S)-1-methylpropyl]-6-[6-(1-piperazinyl)-3-pyridinyl]-1H-indole-4-carboxamide]
deposition of H3K27me3 marks near transcriptional start sites (TSSs) across the genome [2]: decreased | N.Ob/B.pm [3, 4]: 0.028 #/mm | N.Ob/T.Ar [3, 4]: 0.109 | N.Oc/B.Pm [3, 4]: 0.015 #/mm | N.Oc/T.Ar [3, 4]: 0.042 | Ob.S/BS [3, 4]: 0.354% | N.Ob/B.pm [3, 5]: 0.040 #/mm | N.Ob/T.Ar [3, 5]: 0.081 | N.Oc/B.Pm [3, 5]: 0.018 #/mm | N.Oc/T.Ar [3, 5]: 0.050 | Ob.S/BS [3, 5]: 0.551% | interlabel thickness (Ir.L.Th), mineral apposition rate (MAR) and bone formation rate (BFR) ([3]; dynamic histomorphometry, GSK126 50 mg/kg vs vehicle): enhanced | Oc.S/BS ([3]; static histomorphometry, distal femoral metaphysis, 15 mg/kg): 0.314% | Oc.S/BS ([3]; static histomorphometry, distal femoral metaphysis, 50 mg/kg): 0.240% | osteoblast surface area per bone surface area (Ob.S/BS) ([3]; static histomorphometry, distal femoral metaphysis, in words (FIG. 19C)): increase | number of osteoblasts per bone perimeter (N. Ob./B.Pm) ([3]; static histomorphometry, distal femoral metaphysis, in words (FIG. 19D)): increase
